Data on one compound can be found in US5188642A, “Glyphosate-resistant plants” (priority 1990, dated 1993).

The test concerns infected potato stem explants. As to the kind of experiment: Kanamycin selection of potato stem explants. The test is classed as cell-based, potato (Russet Burbank). To be noted: Kanamycin at 300 mg/l. As for the experimental part:
Potato--Shoot tips of virus-free Russet Burbank are subcultured on media containing MS major and minor salts, 0.17 g/l sodium dihygrogen phosphate, 0.4 mg/l thiamine hydrochloride, 0.1 g/l inositol, 3% sucrose, 1.5 g/l Gelrite™ (Kelco, Co ) at pH 5.6. Cultures are grown at 24C in a 16 hour photoperiod. Shoots are used approximately 3-4 weeks after subculturing. Stem internodes are cut into approximately 8 mm lengths and split lengthwise, then the cut surface is smeared with Agrobacterium carrying binary vector pMON542 and helper plasmid pTiT37-SE which had been streaked on an LB agar plate and grown for a few days. Stem sections are placed cut side down on the surface of the medium containing MS salts, MS organics, 3% sucrose, 2.25 mg/l BA, […] NAA, 10 mg/l GA, 1.5 g/l Gelrite at pH 5.6. After 4 days, the stem explants are transferred to the same medium but with carbenicillin at 500 mg/l and kanamycin as the selective agent at 0 or 300 mg/l. Two weeks after inoculation, the explants are moved onto medium of the same composition but without NAA.

As to `NC[C@H]1O[C@H](O[C@H]2[C@H](O)[C@@H](O[C@H]3O[C@H](CO)[C@@H](O)[C@H](N)[C@H]3O)[C@H](N)C[C@@H]2N)[C@H](O)[C@@H](O)[C@@H]1O` [Kanamycin, kanamycin], the “swelling and callusing of explants” value was “sufficient to prevent swelling and callusing of the infected explants without killing the tissue”.
